Source: US8653043B2, “Enhanced neoglycosides through neoglycosylation and methods of use thereof” (Wisconsin Alumni Research Foundation, priority 2009, dated 2014)

Columns and labels:
human cancer cell lines = test: Cytotoxicity assay (calcein AM / CellTiter-Glo) in carcinoma cell lines; type: cell-based; details: for improvement of cytotoxic activity over the parent natural product: versus parent 1, breast, colorectal, lung and prostate carcinoma lines; for potency improvement of amide-linked versus ester-linked neoglycoside: ABA compound compared with ester analog bearing the same sugar; for cytotoxic potency compared to parent 1: in one or more cell lines, comparison with betulinic acid (1)
Procedure: The cytoxicity of the library members was assessed in seven human cancer cell lines representing a broad range of carcinomas including breast, colorectal, CNS, lung and prostate.
The cytoxicity of ABA1-5 was evaluated in human cell lines of breast, colorectal, lung and prostate carcinomas.
Testing was performed by the Keck-UWCCC Small Molecule Screening Facility (Madison, Wis.). Carcinoma cell lines were maintained and harvested as previously reported, along with compound handling and assay set up.^21 Cells were plated in 50 μL volumes in 384-well clear bottom tissue culture plates. Serial dilutions of 30 mM DMSO compound stock solutions were done in 96-well plates using a BioTek Precision XS liquid handler (Winooski, Vt.) to a concentration 100× greater than that of the most dilute assay. Final dilutions were performed in a 384-well plate in quadruplicate using a Beckman-Coulter Biomek FX liquid handler with a 384 channel pipetting head (Fullerton, Calif.) and were stored at −20° C. when not in use. Compounds were then added to the culture plates by the Biomek FX handler and were incubated at 37° C. for 72 h. The calcein AM reagent (acetoxymethyl ester; 30 μL, 10 μM) was then added, the cells were incubated for 30 m at 37° C., and plates were read for fluorescent emission (535 nm). Cell titer-glo reagent (15 μL; Promega Corp., Madison, Wis.) was added and the plates incubated for 10 m at room temperature with gentle agitation to lyse the cells. Each plate was reexamined for luminescence to verify inhibition. IC50 values for cytotoxicity were determined using XLift 4.2 as previously reported.^21

[1] = test system: HIV-1 virus (IIIB strain); test: Anti-HIV-1 cytoprotection (CPE) assay in CEM-SS cells; type: cell-based; details: 1 μM; HIV-1 IIIB-infected CEM-SS cells
Procedure: To assess the corresponding impact of differential glycosylation upon antiviral activity, the entire set of compounds was subsequently tested in a single dose (10 μM) anti-HIV-1 assay against CEM-SS cells (i.e., CD4+ T lymphocytes) infected with the IIIB strain of HIV-1. Compound efficacy was determined by the percent increase of cytoprotective effect (CPE), which is prevention of intercellular virus replication, over untreated HIV-1-infected cells.
Both cells and virus were mixed with compound (10 μM & 1 μM for ABA1-5 and […] for all others) in triplicate in 96-well plates and incubated for six days at 37° C. Compound cytoprotection and cytotoxicity were evaluated using MTS tetrazolium dye (Promega Corp., Madison, Wis.) as previously reported.^23 Each assay plate used the following controls: cells only, cells/virus, cells/compound, compound only. The reverse transcriptase inhibitor AZT and protease inhibitor Indinavir were included as positive controls.

Compound | improvement of cytotoxic activity over the parent natural product (human cancer cell lines) [fold] | cytotoxic potency compared to parent 1 (human cancer cell lines) | also measured
C=C(C)[C@@H]1CC[C@]2(C(=O)O)CC[C@]3(C)[C@H](CC[C@@H]4[C@@]5(C)CC[C@H](NC(=O)CN(OC)[C@@H]6O[C@H](CO)[C@@H](O)[C@@H](O)[C@@H]6O)C(C)(C)[C@@H]5CC[C@]43C)[C@@H]12 [ABA1, (3S)-N-(N′-Methoxy-N′-β-D-altrosylglycyl)betulinic acid] | ~2 | – | –
C=C(C)[C@@H]1CC[C@]2(C(=O)O)CC[C@]3(C)[C@H](CC[C@@H]4[C@@]5(C)CC[C@H](NC(=O)CN(OC)C6OC[C@H](O)[C@H](O)[C@@H]6O)C(C)(C)[C@@H]5CC[C@]43C)[C@@H]12 (stereo partly drawn) [ABA4, (3S)-N-(N′-Methoxy-N′-L-ribosylglycyl)betulinic acid] | ~2 | – | potency improvement of amide-linked versus ester-linked neoglycoside (human cancer cell lines): ≥ 6 fold
C=C(C)[C@@H]1CC[C@]2(C(=O)O)CC[C@]3(C)[C@H](CC[C@@H]4[C@@]5(C)CC[C@H](NC(=O)CN(OC)C6OC[C@@H](O)[C@H](O)[C@H]6O)C(C)(C)[C@@H]5CC[C@]43C)[C@@H]12 (stereo partly drawn) [ABA5, (3S)-N-(N′-Methoxy-N′-D-xylosylglycyl)betulinic acid] | ~2 | – | potency improvement of amide-linked versus ester-linked neoglycoside (human cancer cell lines): ≤ 2 fold
C=C(C)[C@@H]1CC[C@]2(C(=O)O)CC[C@]3(C)[C@H](CC[C@@H]4[C@@]5(C)CC[C@H](OC(=O)CN(OC)[C@@H]6O[C@H](CO)[C@@H](O)[C@@H](O)[C@H]6O)C(C)(C)[C@@H]5CC[C@]43C)[C@@H]12 [BA1, (3S)-O-(N-Methoxy-N-β-D-allosylglycyl)betulinic acid] | – | equipotent | –
C=C(C)[C@@H]1CC[C@]2(C(=O)O)CC[C@]3(C)[C@H](CC[C@@H]4[C@@]5(C)CC[C@H](OC(=O)CN(OC)C6O[C@@H](C)[C@@H](O)[C@@H](O)[C@@H]6O)C(C)(C)[C@@H]5CC[C@]43C)[C@@H]12 (stereo partly drawn) [BA9, (3S)-O-(N-Methoxy-N-L-fucosylglycyl)betulinic acid] | – | equipotent | –
C=C(C)[C@@H]1CC[C@]2(C(=O)O)CC[C@]3(C)C(CCC4[C@@]5(C)CC[C@H](OC(=O)CN(OC)C6O[C@@H](C)[C@H](O)[C@@H](O)[C@H]6O)C(C)(C)C5CC[C@]43C)C12 (stereo partly drawn) [BA27] | – | – | IC50 (human cancer cell lines; ester-linked BA series, 72 h incubation, cell line not specified / at least one cell line): ≥ 25 µM
C=C(C)[C@@H]1CC[C@]2(C(=O)O)CC[C@]3(C)C(CCC4[C@@]5(C)CC[C@H](OC(=O)CN(OC)[C@H]6OC[C@H](O)[C@@H](O)[C@@H]6O)C(C)(C)C5CC[C@]43C)C12 (stereo partly drawn) [BA32, (3S)-O-(N-Methoxy-N-β-L-xylosylglycyl)betulinic acid] | – | equipotent | –
C=C(C)[C@@H]1CC[C@]2(C(=O)O)CC[C@]3(C)[C@H](CCC4[C@@]5(C)CC[C@H](OC(=O)CNOC)C(C)(C)C5CC[C@]43C)C12 (stereo partly drawn) [compound 7, (3S)-O-(N-Methoxyglycyl)betulinic acid] | – | relatively similar potencies | –
C=C(C)[C@@H]1CC[C@]2(C(=O)O)CC[C@]3(C)[C@H](CC[C@@H]4[C@@]5(C)CC[C@H](NC(=O)CNOC)C(C)(C)[C@@H]5CC[C@]43C)[C@@H]12 [compound 10, (3S)-N-(N′-Methoxyglycyl)aminobetulinic acid] | – | relatively similar potencies | increase in CPE [1]: no noticeable activity
